{"source": "PubChem BioAssay AID540332", "about": "(The Scripps Research Institute Molecular Screening Center, 2011)", "assay_in_all_cases": "selectivity profile across receptors and CYP450s – biochemical, Ricerca HitProfilingScreen, CYP450, set 2, selectivity assay for S1P4 agonist project, profiling panel (AID 540332)", "key": {"Sigma 1": {"test_system": "Sigma 1", "settings": "at 30 µM; hits give high values"}, "[1]": {"molecular_target": "Cytochrome P450 2C9 (Homo sapiens) (UniProt P11712)", "sequence (P11712 whole entry, looked up)": "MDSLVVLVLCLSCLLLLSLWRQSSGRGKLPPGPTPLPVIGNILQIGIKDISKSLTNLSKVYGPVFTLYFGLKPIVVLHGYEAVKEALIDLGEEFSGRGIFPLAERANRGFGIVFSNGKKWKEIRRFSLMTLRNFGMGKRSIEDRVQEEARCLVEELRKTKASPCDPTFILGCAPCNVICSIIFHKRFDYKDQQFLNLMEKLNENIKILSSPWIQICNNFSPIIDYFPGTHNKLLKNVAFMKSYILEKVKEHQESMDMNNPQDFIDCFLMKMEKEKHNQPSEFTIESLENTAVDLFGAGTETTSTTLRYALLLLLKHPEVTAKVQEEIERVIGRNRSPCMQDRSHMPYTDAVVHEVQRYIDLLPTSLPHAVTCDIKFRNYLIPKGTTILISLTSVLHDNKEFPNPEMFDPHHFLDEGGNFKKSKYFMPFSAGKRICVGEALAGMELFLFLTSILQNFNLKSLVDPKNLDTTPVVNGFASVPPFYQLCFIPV", "settings": "CYP450 2C9; at 30 µM; hits give high values"}, "[2]": {"molecular_target": "Alpha-2A adrenergic receptor (Homo sapiens) (UniProt P08913)", "sequence (P08913 whole entry, looked up)": "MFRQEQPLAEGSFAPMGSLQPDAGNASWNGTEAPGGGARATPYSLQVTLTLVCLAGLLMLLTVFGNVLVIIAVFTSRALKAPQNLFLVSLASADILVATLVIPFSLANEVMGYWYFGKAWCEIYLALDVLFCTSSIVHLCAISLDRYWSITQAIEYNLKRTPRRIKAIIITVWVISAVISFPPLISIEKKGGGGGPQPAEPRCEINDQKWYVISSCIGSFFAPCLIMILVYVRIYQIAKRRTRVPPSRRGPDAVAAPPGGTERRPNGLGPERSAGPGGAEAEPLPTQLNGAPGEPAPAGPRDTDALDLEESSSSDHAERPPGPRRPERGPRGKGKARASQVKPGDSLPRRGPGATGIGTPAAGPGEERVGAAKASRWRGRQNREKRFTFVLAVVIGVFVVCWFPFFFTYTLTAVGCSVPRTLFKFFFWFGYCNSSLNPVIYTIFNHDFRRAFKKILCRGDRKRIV", "settings": "Adrenergic alpha2A; at 30 µM; hits give high values"}, "GABAA": {"test_system": "GABAA", "settings": "Central, at 30 µM, hits give high values"}, "Histamine H1": {"test_system": "Histamine H1", "settings": "at 30 µM; hits give high values"}, "[3]": {"test_system": "Alpha-2A adrenergic receptor (Homo sapiens) + Histamine H1 receptor (Homo sapiens) + Mu-type opioid receptor (Homo sapiens)", "settings": "at 30 µM; hits give high values"}, "Adrenergic beta1": {"test_system": "Adrenergic beta1", "settings": "at 30 µM; hits give high values"}, "CYP450 2C19": {"test_system": "CYP450 2C19", "settings": "at 30 µM; hits give high values"}, "Prostanoid EP4": {"test_system": "Prostanoid EP4", "settings": "at 30 µM; hits give high values"}, "Adrenergic alpha1B": {"test_system": "Adrenergic alpha1B", "settings": "at 30 µM; hits give high values"}, "Nicotinic Acetylcholine": {"test_system": "Nicotinic Acetylcholine", "settings": "at 30 µM; hits give high values"}, "[4]": {"molecular_target": "Voltage-gated inwardly rectifying potassium channel KCNH2 (Homo sapiens) (UniProt Q12809)", "sequence (Q12809 whole entry, looked up)": "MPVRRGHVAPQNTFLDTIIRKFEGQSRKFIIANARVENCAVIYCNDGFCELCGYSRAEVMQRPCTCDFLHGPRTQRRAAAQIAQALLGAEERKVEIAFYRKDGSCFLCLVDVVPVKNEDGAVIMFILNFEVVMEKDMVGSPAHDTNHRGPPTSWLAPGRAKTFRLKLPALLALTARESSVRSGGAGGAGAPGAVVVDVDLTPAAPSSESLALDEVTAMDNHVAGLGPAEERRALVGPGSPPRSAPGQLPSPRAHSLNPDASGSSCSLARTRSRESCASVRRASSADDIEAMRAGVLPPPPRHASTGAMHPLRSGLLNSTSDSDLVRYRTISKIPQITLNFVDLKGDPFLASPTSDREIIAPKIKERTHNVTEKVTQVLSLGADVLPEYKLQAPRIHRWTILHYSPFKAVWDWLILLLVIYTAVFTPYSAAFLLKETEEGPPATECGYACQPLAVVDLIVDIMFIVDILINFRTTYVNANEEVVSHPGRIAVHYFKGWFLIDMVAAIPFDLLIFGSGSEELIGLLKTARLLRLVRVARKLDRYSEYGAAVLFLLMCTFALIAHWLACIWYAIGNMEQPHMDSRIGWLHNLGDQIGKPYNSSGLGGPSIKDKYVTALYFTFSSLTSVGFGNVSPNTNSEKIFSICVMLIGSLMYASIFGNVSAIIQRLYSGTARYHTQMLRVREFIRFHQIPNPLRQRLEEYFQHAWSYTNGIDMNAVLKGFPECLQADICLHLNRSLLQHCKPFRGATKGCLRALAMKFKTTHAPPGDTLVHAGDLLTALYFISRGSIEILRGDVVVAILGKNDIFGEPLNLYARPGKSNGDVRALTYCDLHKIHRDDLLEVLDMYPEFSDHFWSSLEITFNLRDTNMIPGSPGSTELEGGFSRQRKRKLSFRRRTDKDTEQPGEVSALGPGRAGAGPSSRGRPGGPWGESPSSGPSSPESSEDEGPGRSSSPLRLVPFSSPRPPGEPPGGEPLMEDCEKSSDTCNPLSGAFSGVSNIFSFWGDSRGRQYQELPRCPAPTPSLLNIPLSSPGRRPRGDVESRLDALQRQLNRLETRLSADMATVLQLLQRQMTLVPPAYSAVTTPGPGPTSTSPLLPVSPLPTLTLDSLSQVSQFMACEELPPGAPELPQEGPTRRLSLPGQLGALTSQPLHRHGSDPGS", "settings": "Potassium Channel hERG; at 30 µM; hits give high values"}, "Opiate mu (OP3, MOP)": {"test_system": "Opiate mu (OP3, MOP)", "settings": "at 30 µM; hits give high values"}, "[5]": {"molecular_target": "Beta-2 adrenergic receptor (Homo sapiens) (UniProt P07550)", "sequence (P07550 whole entry, looked up)": "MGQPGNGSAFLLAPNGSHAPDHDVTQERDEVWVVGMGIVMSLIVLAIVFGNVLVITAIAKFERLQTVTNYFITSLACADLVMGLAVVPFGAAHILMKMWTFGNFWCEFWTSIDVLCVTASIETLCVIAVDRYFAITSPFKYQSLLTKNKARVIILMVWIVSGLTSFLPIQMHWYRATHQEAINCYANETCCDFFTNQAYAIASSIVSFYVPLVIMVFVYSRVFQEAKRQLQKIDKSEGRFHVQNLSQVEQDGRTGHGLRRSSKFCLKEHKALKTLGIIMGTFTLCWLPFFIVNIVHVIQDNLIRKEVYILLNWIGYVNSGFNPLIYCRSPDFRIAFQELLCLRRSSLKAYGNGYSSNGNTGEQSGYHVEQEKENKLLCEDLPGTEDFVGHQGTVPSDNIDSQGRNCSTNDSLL", "settings": "Adrenergic beta2; at 30 µM; hits give high values"}, "[6]": {"molecular_target": "5-hydroxytryptamine receptor 2B (Homo sapiens) (UniProt P41595)", "sequence (P41595 whole entry, looked up)": "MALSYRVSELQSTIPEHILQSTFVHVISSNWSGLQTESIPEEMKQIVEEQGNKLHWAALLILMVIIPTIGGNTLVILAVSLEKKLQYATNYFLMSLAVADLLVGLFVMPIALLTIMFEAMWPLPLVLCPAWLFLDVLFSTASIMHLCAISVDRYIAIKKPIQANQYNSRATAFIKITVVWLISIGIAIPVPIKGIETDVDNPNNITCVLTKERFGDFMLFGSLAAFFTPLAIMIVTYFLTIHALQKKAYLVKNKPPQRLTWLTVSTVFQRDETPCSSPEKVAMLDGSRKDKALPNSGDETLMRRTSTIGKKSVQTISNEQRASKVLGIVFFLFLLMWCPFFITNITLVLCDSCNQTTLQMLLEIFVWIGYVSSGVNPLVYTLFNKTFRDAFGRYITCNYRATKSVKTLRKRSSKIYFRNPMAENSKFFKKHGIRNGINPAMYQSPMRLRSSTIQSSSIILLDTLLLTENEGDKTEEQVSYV", "settings": "Serotonin (5-Hydroxytryptamine) 5-HT2B; at 30 µM; hits give high values"}, "[7]": {"molecular_target": "Muscarinic acetylcholine receptor M3 (Homo sapiens) (UniProt P20309)", "sequence (P20309 whole entry, looked up)": "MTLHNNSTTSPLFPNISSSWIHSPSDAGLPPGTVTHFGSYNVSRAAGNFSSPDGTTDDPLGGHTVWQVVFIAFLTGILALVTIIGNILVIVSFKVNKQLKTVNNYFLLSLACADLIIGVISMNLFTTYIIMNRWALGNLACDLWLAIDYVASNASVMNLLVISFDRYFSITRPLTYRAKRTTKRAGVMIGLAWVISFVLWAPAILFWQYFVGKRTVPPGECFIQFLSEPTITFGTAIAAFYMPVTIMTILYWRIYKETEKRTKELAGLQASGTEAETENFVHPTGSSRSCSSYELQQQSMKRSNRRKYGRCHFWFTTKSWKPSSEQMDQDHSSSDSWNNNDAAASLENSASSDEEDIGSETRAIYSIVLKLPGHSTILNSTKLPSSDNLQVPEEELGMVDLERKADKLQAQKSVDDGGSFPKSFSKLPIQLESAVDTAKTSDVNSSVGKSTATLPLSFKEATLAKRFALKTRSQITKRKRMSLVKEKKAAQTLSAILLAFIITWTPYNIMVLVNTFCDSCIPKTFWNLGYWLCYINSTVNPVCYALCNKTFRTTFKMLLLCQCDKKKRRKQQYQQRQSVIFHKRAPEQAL", "settings": "at 30 µM, hits give high values"}, "Glutamate, NMDA": {"test_system": "Glutamate, NMDA", "settings": "Phencyclidine; at 30 µM; hits give high values"}, "[8]": {"molecular_target": "D(1A) dopamine receptor (Homo sapiens) (UniProt P21728)", "sequence (P21728 whole entry, looked up)": "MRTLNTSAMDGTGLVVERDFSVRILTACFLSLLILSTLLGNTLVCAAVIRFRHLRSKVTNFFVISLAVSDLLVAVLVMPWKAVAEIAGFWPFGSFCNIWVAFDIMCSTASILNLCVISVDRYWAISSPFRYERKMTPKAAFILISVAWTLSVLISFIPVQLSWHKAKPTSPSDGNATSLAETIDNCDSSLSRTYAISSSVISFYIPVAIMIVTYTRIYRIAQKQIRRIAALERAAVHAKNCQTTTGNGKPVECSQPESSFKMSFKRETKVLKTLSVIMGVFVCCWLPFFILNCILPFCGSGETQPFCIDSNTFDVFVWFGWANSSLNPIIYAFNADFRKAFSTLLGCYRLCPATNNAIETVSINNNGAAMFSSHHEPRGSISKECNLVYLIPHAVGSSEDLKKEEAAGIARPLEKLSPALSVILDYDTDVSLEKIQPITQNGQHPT", "settings": "Dopamine D1; at 30 µM; hits give high values"}, "Dopamine D2": {"test_system": "Dopamine D2", "settings": "at 30 µM; hits give high values"}, "[9]": {"molecular_target": "Muscarinic acetylcholine receptor M2 (Homo sapiens) (UniProt P08172)", "sequence (P08172 whole entry, looked up)": "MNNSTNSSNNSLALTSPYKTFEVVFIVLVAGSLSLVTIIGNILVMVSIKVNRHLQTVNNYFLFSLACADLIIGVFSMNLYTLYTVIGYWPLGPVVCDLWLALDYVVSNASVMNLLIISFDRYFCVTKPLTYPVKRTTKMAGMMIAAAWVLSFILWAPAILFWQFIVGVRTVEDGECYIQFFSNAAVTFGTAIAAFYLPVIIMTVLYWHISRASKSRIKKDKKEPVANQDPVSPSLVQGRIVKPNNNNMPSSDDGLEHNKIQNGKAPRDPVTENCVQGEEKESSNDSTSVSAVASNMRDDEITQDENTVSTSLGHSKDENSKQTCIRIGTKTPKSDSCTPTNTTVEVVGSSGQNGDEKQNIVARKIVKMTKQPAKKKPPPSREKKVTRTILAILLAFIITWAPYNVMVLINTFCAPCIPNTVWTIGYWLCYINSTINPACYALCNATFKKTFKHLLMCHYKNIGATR", "settings": "at 30 µM, hits give high values"}, "Sodium Channel, Site 2": {"test_system": "Sodium Channel, Site 2", "settings": "at 30 µM; hits give high values"}, "Adrenergic alpha1A": {"test_system": "Adrenergic alpha1A", "settings": "at 30 µM; hits give high values"}, "Adenosine A1": {"test_system": "Adenosine A1", "settings": "at 30 µM; hits give high values"}, "[10]": {"molecular_target": "Cytochrome P450 2D6 (Homo sapiens) (UniProt P10635)", "settings": "CYP450 2D6; at 30 µM; hits give high values"}, "Adenosine A2A": {"test_system": "Adenosine A2A", "settings": "at 30 µM; hits give high values"}, "[11]": {"molecular_target": "Cytochrome P450 3A4 (Homo sapiens) (UniProt P08684)", "sequence (P08684 whole entry, looked up)": "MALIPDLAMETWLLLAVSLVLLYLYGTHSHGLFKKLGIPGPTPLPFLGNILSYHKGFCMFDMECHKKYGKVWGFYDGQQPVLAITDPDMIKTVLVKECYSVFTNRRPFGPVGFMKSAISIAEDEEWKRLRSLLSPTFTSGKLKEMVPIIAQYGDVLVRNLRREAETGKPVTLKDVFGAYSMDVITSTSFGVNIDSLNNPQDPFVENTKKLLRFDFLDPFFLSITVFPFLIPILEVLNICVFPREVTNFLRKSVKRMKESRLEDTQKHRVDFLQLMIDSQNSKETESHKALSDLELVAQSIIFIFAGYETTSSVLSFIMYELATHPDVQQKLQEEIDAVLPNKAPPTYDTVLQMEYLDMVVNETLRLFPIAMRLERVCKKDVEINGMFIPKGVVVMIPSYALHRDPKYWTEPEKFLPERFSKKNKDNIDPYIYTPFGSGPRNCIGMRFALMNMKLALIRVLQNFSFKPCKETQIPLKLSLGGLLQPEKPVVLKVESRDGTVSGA", "settings": "CYP450 3A4; at 30 µM; hits give high values"}, "[12]": {"test_system": "Norepinephrine Transporter (NET)", "settings": "at 30 µM; hits give high values"}, "[13]": {"molecular_target": "Cytochrome P450 1A2 (Homo sapiens) (UniProt P05177)", "settings": "CYP450 1A2; at 30 µM; hits give high values"}, "[14]": {"test_system": "Calcium Channel L-Type, Dihydropyridine", "settings": "at 30 µM; hits give high values"}, "Cannabinoid CB1": {"test_system": "Cannabinoid CB1", "settings": "at 30 µM; hits give high values"}}, "note": "Calls of active or inactive are those of the source. No rule for the calls is given here."}
{"smiles": "COCCN=C1S/C(=C\\c2cc(C)n(-c3ccc(F)cc3F)c2C)C(=O)N1C", "values": [{"measurement": "inhibition", "setting": "Sigma 1", "result": "2% (inactive)"}, {"measurement": "inhibition", "setting": "[1]", "result": "-28% (inactive)"}, {"measurement": "inhibition", "setting": "[2]", "result": "40% (inactive)"}, {"measurement": "inhibition", "setting": "GABAA; Flunitrazepam", "result": "-8% (inactive)"}, {"measurement": "inhibition", "setting": "GABAA; Muscimol", "result": "3% (inactive)"}, {"measurement": "inhibition", "setting": "Histamine H1", "result": 52, "unit": "%"}, {"measurement": "inhibition", "setting": "[3]", "result": "11% (inactive)"}, {"measurement": "inhibition", "setting": "Adrenergic beta1", "result": "39% (inactive)"}, {"measurement": "inhibition", "setting": "CYP450 2C19", "result": "-24% (inactive)"}, {"measurement": "inhibition", "setting": "Prostanoid EP4", "result": "29% (inactive)"}, {"measurement": "inhibition", "setting": "Adrenergic alpha1B", "result": "42% (inactive)"}, {"measurement": "inhibition", "setting": "Nicotinic Acetylcholine", "result": -53, "unit": "%"}, {"measurement": "inhibition", "setting": "[4]", "result": "29% (inactive)"}, {"measurement": "inhibition", "setting": "Opiate mu (OP3, MOP)", "result": 69, "unit": "%"}, {"measurement": "inhibition", "setting": "[5]", "result": "6% (inactive)"}, {"measurement": "inhibition", "setting": "[6]", "result": 66, "unit": "%"}, {"measurement": "inhibition", "setting": "[7]", "result": "23% (inactive)"}, {"measurement": "inhibition", "setting": "Glutamate, NMDA", "result": "6% (inactive)"}, {"measurement": "inhibition", "setting": "[8]", "result": "27% (inactive)"}, {"measurement": "inhibition", "setting": "Dopamine D2", "result": "12% (inactive)"}, {"measurement": "inhibition", "setting": "[9]", "result": "13% (inactive)"}, {"measurement": "inhibition", "setting": "Sodium Channel, Site 2", "result": 59, "unit": "%"}, {"measurement": "inhibition", "setting": "Adrenergic alpha1A", "result": "40% (inactive)"}, {"measurement": "inhibition", "setting": "Adenosine A1", "result": "29% (inactive)"}, {"measurement": "inhibition", "setting": "[10]", "result": "8% (inactive)"}, {"measurement": "inhibition", "setting": "Adenosine A2A", "result": "26% (inactive)"}, {"measurement": "inhibition", "setting": "[11]", "result": 56, "unit": "%"}, {"measurement": "inhibition", "setting": "[12]", "result": 71, "unit": "%"}, {"measurement": "inhibition", "setting": "[13]", "result": "14% (inactive)"}, {"measurement": "inhibition", "setting": "[14]", "result": 64, "unit": "%"}, {"measurement": "inhibition", "setting": "Cannabinoid CB1", "result": 65, "unit": "%"}]}
